Test results: the NIST ThermoML archive (doi:10.1016/j.fluid.2011.03.030)

Assays:
[1] = xn = mol fraction of the nth substance listed; conditions: 101 kPa, Liquid; for viscosity: Capillary tube (Ostwald / Ubbelohde) method; for mass density: Vibrating tube method
[2] = Liquid; for viscosity: Capillary tube (Ostwald / Ubbelohde) method; for mass density: Vibrating tube method; for vapor or sublimation pressure / Normal boiling temperature: Ebulliometric method (Recirculating still)

C1C[C@@H]2[C@H]3CC[C@H](C3)[C@@H]2C1 [exo-tetrahydrodicyclopentadiene] + CC1CCCCC1
[1]
Conditions | mass density, 303.15 K [kg/m3] | mass density, 308.15 K [kg/m3] | mass density, 313.15 K [kg/m3] | viscosity, 303.15 K [mPa·s] | viscosity, 308.15 K [mPa·s] | viscosity, 313.15 K [mPa·s]
x2 = 0 | 927.41 | 923.48 | 919.58 | 2.522 | 2.298 | 2.107
x2 = 0.1404 | 907.42 | 903.45 | 899.48 | 2.047 | 1.891 | 1.736
x2 = 0.2593 | 889.67 | 885.65 | 881.63 | 1.754 | 1.616 | 1.475
x2 = 0.3693 | 872.78 | 868.72 | 864.67 | 1.502 | 1.386 | 1.275
x2 = 0.4981 | 851.85 | 847.73 | 843.61 | 1.258 | 1.163 | 1.078
x2 = 0.5813 | 837.98 | 833.82 | 829.66 | 1.113 | 1.02 | 0.963
x2 = 0.6745 | 821.76 | 817.58 | 813.38 | 0.975 | 0.897 | 0.862
x2 = 0.763 | 805.84 | 801.58 | 797.33 | 0.866 | 0.798 | 0.754
x2 = 0.8469 | 790.22 | 785.95 | 781.66 | 0.772 | 0.711 | 0.675
x2 = 0.9245 | 775.47 | 771.16 | 766.83 | 0.693 | 0.644 | 0.612

CC1CCCCC1 [methylcyclohexane]
[2]
Conditions | mass density, 298.15 K [kg/m3] | mass density, 303.15 K [kg/m3] | mass density, 308.15 K [kg/m3] | mass density, 313.15 K [kg/m3] | viscosity, 298.15 K [mPa·s] | viscosity, 303.15 K [mPa·s] | viscosity, 308.15 K [mPa·s] | viscosity, 313.15 K [mPa·s]
101 kPa | – | 760.65 | 756.29 | 751.93 | – | 0.627 | 0.581 | 0.554
101.33 kPa | 765 | – | – | – | 0.678 | – | – | –

[2]
Conditions | vapor or sublimation pressure [kPa]
321.9 K | 17.91
331.5 K | 25.77
336.8 K | 31.22
342.3 K | 37.99
346.9 K | 44.45
350.7 K | 50.35
355.2 K | 58.09
359.1 K | 65.61
362.3 K | 72.29
364.8 K | 79.09
366.4 K | 85.13
369.8 K | 92.76
373.9 K | 100.7

Conditions | Normal boiling temperature [°C]
[2] | 98.98

C1C[C@@H]2[C@H]3CC[C@H](C3)[C@@H]2C1 [exo-tetrahydrodicyclopentadiene]
[2]
Conditions | mass density, 298.15 K [kg/m3] | mass density, 303.15 K [kg/m3] | mass density, 308.15 K [kg/m3] | mass density, 313.15 K [kg/m3] | viscosity, 298.15 K [mPa·s] | viscosity, 303.15 K [mPa·s] | viscosity, 308.15 K [mPa·s] | viscosity, 313.15 K [mPa·s]
101 kPa | – | 927.41 | 923.48 | 919.58 | – | 2.522 | 2.298 | 2.107
101.33 kPa | 931.4 | – | – | – | 2.739 | – | – | –

[2]
Conditions | vapor or sublimation pressure [kPa]
396 K | 16.64
401.4 K | 20.62
413.8 K | 30.3
418.3 K | 34.79
426.8 K | 44.86
431.2 K | 50.7
434.5 K | 55.76
436.6 K | 59.2
439 K | 63.22
441.1 K | 66.63
442.7 K | 69.49
442.8 K | 69.77
444.3 K | 72.58
445.7 K | 75.11
446.1 K | 75.89
450 K | 83.92
457.3 K | 101.1

Conditions | Normal boiling temperature [°C]
[2] | 184.94

CC1CCCCC1 [methylcyclohexane] + C1C[C@@H]2[C@H]3CC[C@H](C3)[C@@H]2C1
[1], x1 = 1
Conditions | mass density [kg/m3] | viscosity [mPa·s]
303.15 K | 760.65 | 0.627
308.15 K | 756.29 | 0.581
313.15 K | 751.93 | 0.554
